For test [1], the target named is protein-protein interaction between Kras and SOS1 (biotin-tagged human Kras loaded with GDP, His-tagged human SOS1) (Homo sapiens (Human), UniProt P01116, G12D). Briefly: Protein-protein interaction inhibition between Kras and SOS1 (KrasG12D-SOS PPI) using AlphaScreen.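 Further: kras produced in E. coli, Ni-coupled donor beads and streptavidin acceptor beads, excitation 680 nm with emission detected at 520–620 nm via singlet oxygen transfer.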 The format is biochemical. The following applies: AlphaScreen; biotin-tagged human Kras loaded with GDP, His-tagged human SOS1; read-out: KRAS G12D-SOS PPI IC50.

The subject of test [2] is Human pancreatic cancer cell line AsPC-1 (G12D mutation Kras). Nature of the test: AsPC-1 cell growth inhibition (AsPC-1 CGI). Particulars: read-out: AsPC-1 cell growth inhibition, 50% growth inhibitory concentration (IC50 value); 96 hours, CellTiter-Glo, values classified in ranges. The format is cell-based.
Description: Test compounds were serially dilated with dimethyl sulfoxide, and 200 nL was then dispensed to a U-bottom 96-well plate using Labcyte Echo. […] The cell suspension was dispensed to a. plate containing a test compound at 100 μL per well and incubated at 37° C. in a 5% carbon dioxide gas incubator. 96 hours later, 80 μL of CellTiter-Glo (Promega) was added to each well and fluorescence was measured.

The results in this text go back to patent US20240148821A1, “PHARMACEUTICAL USE OF CYCLIC PEPTIDE COMPOUND” (CHUGAI SEIYAKU KABUSHIKI KAISHA, priority 2021, published 2024).

The structures appear in SMILES notation. Bridge positions count the residues as written; N and C are the ends. Square brackets hold non-standard residues; d marks the D form. Peptide text beside a SMILES is read from it. * marks the point of attachment. hPhe(3-Cl-4-CF3) = N[C@@H](CCc1ccc(C(F)(F)F)c(Cl)c1)C(=O)O; hPhe(3-F,4-CF3) = N[C@@H](CCc1ccc(C(F)(F)F)c(F)c1)C(=O)O; NMePhe(4-Me) = CN[C@@H](Cc1ccc(C)cc1)C(=O)O; NMeNle(6-CHF2) = CN[C@@H](CCCCC(F)F)C(=O)O; NMeAla(cPent) = CN[C@@H](CC1CCCC1)C(=O)O; NMeGly(cPent) = CN[C@H](C(=O)O)C1CCCC1; Phe(3-I) = N[C@@H](Cc1cccc(I)c1)C(=O)O; NMeCha = CN[C@@H](CC1CCCCC1)C(=O)O; NMeChg = CN[C@H](C(=O)O)C1CCCCC1; NMeD = CN[C@@H](CC(=O)O)C(=O)O; CH2CONHtBu = CC(C)(C)NC(=O)C*; NMeL = CN[C@@H](CC(C)C)C(=O)O; Chg = N[C@H](C(=O)O)C1CCCCC1; dNMeAbu = CC[C@@H](NC)C(=O)O; d(β3hA) = C[C@@H](N)CC(=O)O; NMeS = CN[C@@H](CO)C(=O)O; Pip = O=C(O)[C@@H]1CCCCN1; dNMeS = CN[C@H](CO)C(=O)O; NMeA = CN[C@@H](C)C(=O)O; NMeAib = CNC(C)(C)C(=O)O; Nle = CCCC[C@H](N)C(=O)O; Piperidide = C1CCN(*)CC1; Pra = C#CC[C@H](N)C(=O)O; dNMeA = CN[C@H](C)C(=O)O; Ac5c = NC1(C(=O)O)CCCC1; Aze = O=C(O)[C@@H]1CCN1; CH2CMe2OH = CC(C)(O)C*; Aib = CC(C)(N)C(=O)O; Isopentyl = CC(C)CC*; NEtG = CCNCC(=O)O; Sar = CNCC(=O)O

Take `CC[C@H](C)[C@@H]1NC(=O)[C@H](CC(C)C)N(C)C(=O)C[C@@H](C(=O)N2CCCCC2)N(C)C(=O)[C@H](CC(C)C)NC(=O)C(C)(C)N(C)C(=O)[C@@H]2CCCCCC[C@@H](C(=O)N(C)CC(=O)N[C@@H](Cc3cccc(I)c3)C(=O)N2)N(C)C(=O)CN(C)C(=O)CN(C)C1=O` [Compound 1411, (1S,7S,10S,14S,17S,26S,32S)-32-[(3-iodophenyl)methyl]-7,14-diisobutyl-3,4,4,9,13,19,22,25,28-nonamethyl-17-[(1S)-1-methylpropyl]-10-(piperidine-1-carbonyl)-3,6,9,13,16,19,22,25,28,31,34-undecazabicyclo[24.8.6]tetracontane-2,5,8,12,15,18,21,24,27,30,33-undecone]: the values for the IC50 in test [1] and in test [2] were 82 nM and more than 500 nM, respectively.
The matching figures for `CCCC[C@@H]1NC(=O)[C@H](Cc2cccc(I)c2)NC(=O)CN(C)C(=O)[C@H](CC2CCCC2)N(C)C(=O)[C@@H]2CCN2C(=O)[C@H](C)N(C)C(=O)[C@H]([C@@H](C)CC)NC(=O)[C@@H]2CCCCN2C(=O)C[C@@H](C(=O)N2CCCCC2)N(C)C(=O)[C@H](CC(C)C)NC(=O)C(C)(C)N(C)C1=O` [Compound 1424] ([Pip]I[NMeA][Aze][NMeAla(cPent)][Sar][Phe(3-I)][Nle][NMeAib]L[NMeD]-Piperidide; lactam N-11): 200 nM and more than 500 nM.
As to `CC[C@@H]1C(=O)NC2(CCCC2)C(=O)N(C)[C@@H](C2CCCCC2)C(=O)N(C)[C@H](C(=O)N2CCCCC2)CC(=O)N(C)[C@@H](CC(C)C)C(=O)N[C@@H]([C@@H](C)CC)C(=O)N(C)CC(=O)N(C)CC(=O)N(C)[C@@H](CC2CCCCC2)C(=O)N(C)CC(=O)N[C@@H](CCc2ccc(C(F)(F)F)c(Cl)c2)C(=O)N1C` [Compound 1435] ([NMeL]I[Sar][Sar][NMeCha][Sar][hPhe(3-Cl-4-CF3)][dNMeAbu][Ac5c][NMeChg][NMeD]-Piperidide; lactam N-11), the IC50 in test [1] was 7.4 nM; in test [2], more than 500 nM.
The matching figures for `CC[C@H](C)[C@@H]1NC(=O)[C@H](CC(C)C)N(C)C(=O)C[C@@H](C(=O)N2CCCCC2)N(C)C(=O)[C@H](C2CCCCC2)N(C)C(=O)C2(CCCC2)NC(=O)[C@@H](COCCC(C)C)N(C)C(=O)[C@H](CCc2ccc(C(F)(F)F)c(Cl)c2)NC(=O)CN(C)C(=O)[C@H](CC2CCCCC2)N(C)C(=O)CN(C)C(=O)CN(C)C1=O` [Compound 1436] ([NMeL]I[Sar][Sar][NMeCha][Sar][hPhe(3-Cl-4-CF3)][dNMeS](Isopentyl)[Ac5c][NMeChg][NMeD]-Piperidide; lactam N-11): 39 nM and more than 500 nM.
On the same counts, the results for `CC[C@H](C)[C@@H]1NC(=O)[C@H](CC(C)C)N(C)C(=O)C[C@@H](C(=O)N2CCCCC2)N(C)C(=O)[C@H](C2CCCCC2)N(C)C(=O)C2(CCCC2)NC(=O)[C@@H](CO)N(C)C(=O)[C@H](CCc2ccc(C(F)(F)F)c(Cl)c2)NC(=O)CN(C)C(=O)[C@H](CC2CCCCC2)N(C)C(=O)CN(C)C(=O)CN(C)C1=O` [Compound 1448] ([NMeL]I[Sar][Sar][NMeCha][Sar][hPhe(3-Cl-4-CF3)][dNMeS][Ac5c][NMeChg][NMeD]-Piperidide; lactam N-11) are 1.1 nM and more than 500 nM.
The matching figures for `CC[C@H](C)[C@@H]1NC(=O)[C@H](CC(C)C)N(C)C(=O)C[C@@H](C)NC(=O)[C@H](CC(C)C)N(C)C(=O)C(C)(C)NC(=O)[C@H](CC(C)C)N(C)C(=O)[C@H](CCc2ccc(C(F)(F)F)c(Cl)c2)NC(=O)CN(C)C(=O)[C@H](CCCCC(F)F)N(C)C(=O)CN(C)C(=O)CN(C)C1=O` [Compound 1451] (cyclo([Aib][NMeL][d(β3hA)][NMeL]I[Sar][Sar][NMeNle(6-CHF2)][Sar][hPhe(3-Cl-4-CF3)][NMeL])): 20 nM and more than 500 nM.
As for `CC(C)C[C@H]1C(=O)N[C@@H](C2CCCCC2)C(=O)N(C)CC(=O)N(C)CC(=O)N(C)[C@@H](CCCCC(F)F)C(=O)N(C)CC(=O)N[C@@H](CCc2ccc(C(F)(F)F)c(F)c2)C(=O)N(C)[C@@H](CC(C)C)C(=O)NC(C)(C)C(=O)N(C)[C@@H](CC(C)C)C(=O)N[C@H](C)CC(=O)N1C` [Compound 1460] (cyclo([Aib][NMeL][d(β3hA)][NMeL][Chg][Sar][Sar][NMeNle(6-CHF2)][Sar][hPhe(3-F,4-CF3)][NMeL])), the IC50 was 130 nM in test [1] and more than 500 nM in test [2].
As for `CC[C@H](C)[C@@H]1NC(=O)[C@H](C)N(C)C(=O)C[C@@H](C)NC(=O)[C@H](C2CCCC2)N(C)C(=O)C2(CCCC2)NC(=O)[C@@H]2CCCN2C(=O)[C@H](CCc2ccc(C(F)(F)F)c(Cl)c2)NC(=O)[C@@H](C)N(C)C(=O)[C@H](Cc2ccc(C)cc2)N(C)C(=O)[C@@H]2CCN2C(=O)CN(C)C1=O` [Compound 1461] (cyclo([Ac5c][NMeGly(cPent)][d(β3hA)][NMeA]I[Sar][Aze][NMePhe(4-Me)][dNMeA][hPhe(3-Cl-4-CF3)]P)), the IC50 in test [1] is 37 nM; in test [2], more than 500 nM.
Take `C#CC[C@@H]1NC(=O)[C@H](CC(C)C)N(C)C(=O)C[C@@H](C)NC(=O)[C@H](CC(C)C)N(C)C(=O)C(C)(C)NC(=O)[C@H](CC(C)C)N(C)C(=O)[C@H](CCc2ccc(C(F)(F)F)c(F)c2)NC(=O)CN(C)C(=O)[C@H](CC2CCCCC2)N(C)C(=O)CN(C)C(=O)CN(C)C1=O` [Compound 1474] (cyclo([Aib][NMeL][d(β3hA)][NMeL][Pra][Sar][Sar][NMeCha][Sar][hPhe(3-F,4-CF3)][NMeL])): the IC50 is 240 nM in test [1] and more than 500 nM in test [2].
On the same counts, the results for `CC[C@H](C)[C@@H]1NC(=O)[C@H](COCC(C)(C)O)N(C)C(=O)C[C@@H](C)NC(=O)[C@H](CC(C)C)N(C)C(=O)C(C)(C)NC(=O)[C@H](CC(C)C)N(C)C(=O)[C@H](CCc2ccc(C(F)(F)F)c(Cl)c2)NC(=O)CN(C)C(=O)[C@H](COCCC(C)C)N(C)C(=O)CN(C)C(=O)CN(CC)C1=O` [Compound 1476] (cyclo([Aib][NMeL][d(β3hA)][NMeS](CH2CMe2OH)I[NEtG][Sar][NMeS](Isopentyl)[Sar][hPhe(3-Cl-4-CF3)][NMeL])) are 46 nM and more than 500 nM.
The matching figures for `CC[C@H](C)[C@@H]1NC(=O)[C@H](C)N(C)C(=O)C[C@@H](C)NC(=O)[C@H](C2CCCC2)N(C)C(=O)C2(CCCC2)NC(=O)[C@@H]2CCCN2C(=O)[C@H](CCc2ccc(C(F)(F)F)c(Cl)c2)NC(=O)CN(C)C(=O)[C@H](CC2CCCCC2)N(C)C(=O)[C@@H]2CCN2C(=O)[C@H](C)N(C)C1=O` [Compound 1491] (cyclo([Ac5c][NMeGly(cPent)][d(β3hA)][NMeA]I[NMeA][Aze][NMeCha][Sar][hPhe(3-Cl-4-CF3)]P)): 3.7 nM and more than 500 nM.
The matching figures for `CC[C@H](C)[C@@H]1NC(=O)[C@H](COCC(=O)NC(C)(C)C)N(C)C(=O)C[C@@H](C)NC(=O)[C@H](CC(C)C)N(C)C(=O)C(C)(C)NC(=O)[C@H](CC(C)C)N(C)C(=O)[C@H](CCc2ccc(C(F)(F)F)c(Cl)c2)NC(=O)CN(C)C(=O)[C@H](COCCC(C)C)N(C)C(=O)CN(C)C(=O)CN(CC)C1=O` [Compound 1495] (cyclo([Aib][NMeL][d(β3hA)][NMeS](CH2CONHtBu)I[NEtG][Sar][NMeS](Isopentyl)[Sar][hPhe(3-Cl-4-CF3)][NMeL])): 120 nM and more than 500 nM.
